How the values were obtained:
ferrets = test: Emesis studies in ferrets; type: in vivo, ferret (Mustela putorius furo); conditions: 1-30 mg/kg s.c., 1 hr observation
Method: Emetic Effects of Compound (S)-15 (YL-1-127) in Ferrets. Effects of (S)-15 in causing nausea and emesis were assessed in a ferret model. For comparison, varenicline was also tested. […] In general, all animals remained alert and active with periods of inactivity that mirrored their baseline behavior within the 1 hr observation period.
In one animal, this behavior was accompanied by oral stereotypy (licking), whereas in two animals it was interspersed by episodes of backward walking. On the average, these behaviors manifested around ˜2.20 min. […] Occasionally, when animals tried to ambulate they would immediately cease their movement after each attempt. This would be followed by a momentary increase in breathing, giving the impression that the animal was in distress.
General Procedures for Emesis Studies in Ferrets. Studies were undertaken in male ferrets (Mustela putorius furo) weighing 0.9-1.5 kg (Marshall Farms, N.Y.). They were housed in controlled conditions of room temperature (22° C.) and light (12:12 h light-dark cycle) with free access to food and water. Prior to each experiment, food was withheld overnight, whereas water was provided ad libitum.
Emetic testing consisted of placing animals individually in a polycarbonate enclosure. Following a 30 min acclimation period, each animal randomly received a subcutaneus injection of varencline or compound (S)-15 (YL-1-127) in the subscapular region. A 60 min observation and video recording followed the drug administration. […] All drugs were dissolved in sterile saline.
Video analysis of the incidence of emesis, stereotypical behaviors (such as licking, mouth-clawing, backward walking, gagging, and burying of the head in cage) and GI side effects (diarrhea) was done off-line. Stereotypical behaviors are thought to be reflective of a subjective sensation of nausea. The emetic index of a drug was calculated as the […] of animals displaying emesis (one or more times in 60 min) divided by the total number of animals tested. An emetic episode was defined as the forceful oral expulsion of liquid or solid upper gastrointestinal contents that is temporally separated from another by at least 30 s.
The Nausea Index for the stereotypical behaviors was derived from the mean±SEM number of nausea behaviors observed among all animals in a given treatment group. Significance was determined at p<0.05.

α4β2 nAChR = α4β2 nAChR (Rattus norvegicus (Rat), UniProt P09483+P12390); test: biochemical; type: binding
Method: In Vitro Binding Affinities for nAChR Subtypes. […] To determine selectivities of these compounds in binding assays among the three predominant nAChR subtypes, α3β4, α4β2 and α7, the ratios of Ki values (α3β4/α4β2 and α7/α4β2) were determined.
Cell Lines and Cell Culture. The cell lines expressing defined rat nAChR subtypes were established previously by stably transfecting HEK 293 cells with rat nAChR subunit genes. The cell line expressing human α4β2 nAChRs, YXα4β2H1, was established recently. These cell lines were maintained in minimum essential medium (MEM) supplemented with 10% fetal bovine serum, 100 units/mL penicillin G, […] and selective antibiotics at 37° C. with 5% CO2 in a humidified incubator. Fetal bovine serum was provided by Gemini Bio-Products (Woodland, Calif.). Tissue culture medium and antibiotics were obtained from Invitrogen Corporation (Carlsbad, Calif.), unless otherwise stated.
Briefly, cultured cells at >80% confluence were removed from their flasks (80 cm^2) with a disposable cell scraper and placed in 10 mL of 50 mM Tris.HCl buffer (pH 7.4, 4° C.). The cell suspension was centrifuged at 10,000×g for 5 min and the pellet was collected. The cell pellet was then homogenized in 10 mL buffer with a polytron homogenizer and centrifuged at 36,000 g for 10 min at 4° C. The membrane pellet was resuspended in fresh buffer, and aliquots of the membrane preparation were used for binding assays. […] Bound and free ligands were separated by vacuum filtration through Whatman GF/C filters treated with 0.5% polyethylenimine. The filter-retained radioactivity was measured by liquid scintillation counting. Specific binding was defined as the difference between total binding and nonspecific binding. Data from competition binding assays were analyzed using Prism 5 (GraphPad Software, San Diego, Calif.).
Pharmacological Properties. We measured the in vitro binding affinities of the ligands for defined receptor subtypes (α2β2, α2β4, α3β2, α3β4, α4β2, α4β4, α6β2, α6β4, and α7) expressed in stably transfected cell lines. […] Rat forebrain homogenates were included to allow comparison between the heterologous and native α4β2 and α7 nAChRs. See Table 1 for binding affinity values (Ki) of the ligands at the three major nAChR subtypes (α3β4. α4β2 and α7).

Chain of α4β2 nAChR (P09483 31-630 limits assumed): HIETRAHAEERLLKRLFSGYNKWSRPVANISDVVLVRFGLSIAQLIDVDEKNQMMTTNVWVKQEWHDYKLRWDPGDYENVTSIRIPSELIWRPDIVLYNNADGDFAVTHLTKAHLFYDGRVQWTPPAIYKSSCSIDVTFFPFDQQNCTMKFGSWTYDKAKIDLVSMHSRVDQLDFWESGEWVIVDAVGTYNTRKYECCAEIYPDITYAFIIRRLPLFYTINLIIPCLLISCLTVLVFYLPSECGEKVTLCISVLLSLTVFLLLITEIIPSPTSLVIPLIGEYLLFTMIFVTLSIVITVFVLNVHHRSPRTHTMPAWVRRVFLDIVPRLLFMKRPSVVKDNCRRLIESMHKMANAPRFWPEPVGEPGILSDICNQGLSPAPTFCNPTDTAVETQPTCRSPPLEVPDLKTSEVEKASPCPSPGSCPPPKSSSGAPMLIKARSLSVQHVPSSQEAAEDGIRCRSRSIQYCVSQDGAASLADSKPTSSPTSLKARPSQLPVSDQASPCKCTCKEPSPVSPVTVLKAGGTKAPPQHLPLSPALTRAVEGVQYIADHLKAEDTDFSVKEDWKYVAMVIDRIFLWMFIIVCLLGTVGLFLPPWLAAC
Chain of α4β2 nAChR (P12390 25-500 limits assumed): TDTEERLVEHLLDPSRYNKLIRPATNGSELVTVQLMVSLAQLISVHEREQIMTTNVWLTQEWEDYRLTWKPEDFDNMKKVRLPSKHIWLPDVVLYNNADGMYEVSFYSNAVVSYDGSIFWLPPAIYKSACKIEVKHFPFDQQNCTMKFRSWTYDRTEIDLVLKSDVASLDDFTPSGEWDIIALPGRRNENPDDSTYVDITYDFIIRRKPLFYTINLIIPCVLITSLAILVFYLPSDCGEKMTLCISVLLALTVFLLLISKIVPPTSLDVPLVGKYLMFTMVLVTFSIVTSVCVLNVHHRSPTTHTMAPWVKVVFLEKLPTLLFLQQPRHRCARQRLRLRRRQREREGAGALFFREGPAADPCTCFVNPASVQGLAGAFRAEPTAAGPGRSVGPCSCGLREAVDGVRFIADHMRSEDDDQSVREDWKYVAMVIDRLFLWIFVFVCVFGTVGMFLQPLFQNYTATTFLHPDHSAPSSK

Which results are given for `CCCCC#Cc1cnc(C)c(OC[C@@H]2CCN2)c1` [(S)-15, (S)-3-(azetidin-2-ylmethoxy)-5-(hex-1-ynyl)-2-methylpyridine]?
emetic episodes or stereotypical behaviors indicative of nausea (ferrets): did not elicit any emetic episodes or stereotypical behaviors; Ki (α4β2 nAChR; Table 3 (Example 4), read-out: Ki α4β2): 12 nM; Ki Ratio α3β4/α4β2 (α4β2 nAChR; selectivity for α4β2 over α3β4): 19,000; Ki Ratio α7/α4β2 (α4β2 nAChR; selectivity for α4β2 over α7): 7,800
